From patent publication US20060149064A1, “Process to prepare malayamycin derivatives” (priority 2003, published 2006)

What was measured:
[1] = test system: Blumeria graminis f. sp. tritici (ERYSGT); assay: Foliar protectant test against Blumeria graminis f. sp. tritici (ERYSGT) on wheat; assay type: in vivo; details: 100 ppm foliar spray on wheat; inoculated 6 hours after application; banded assessment
Experimental: (§1) This Example illustrates the fungicidal properties of certain of the novel compounds of formula (I). The compounds were tested against a variety of foliar fungal diseases of plants. The technique employed was as follows. Plants were grown on an artificial, cellulose based growing medium. The test compounds were individually diluted in reverse osmosis water to a final concentration of 100 ppm in water (that is, 1 mg of compound in a final volume of 10 ml) immediately before use. TWEEN 20 (at a final concentration of 0.05% by volume) was added with the water to improve retention of the spray deposit. TWEEN is a registered trade mark. The compounds were applied to the foliage of the test plants by spraying the plant to maximum droplet retention. […] After chemical application and inoculation, the plants were incubated under high humidity conditions (except those inoculated with Blumeria graminis f. sp. tritici) and then put into an appropriate environment to allow infection to proceed until the disease was ready for assessment. […] However, each individual disease was assessed after the same time period for all compounds. […] The disease level present (the percentage leaf area covered by actively sporulating disease) was assessed visually. For each treatment, the assessed values for all its replicates were meaned to provide mean disease values. Untreated control plants were assessed in the same manner. […]

[2] = test system: Stagonospora nodorum (LEPTNO); assay: Foliar protectant test against Stagonospora nodorum (LEPTNO) on wheat; assay type: in vivo; details: 100 ppm foliar spray on wheat; inoculated one day after application; banded assessment
Experimental: as §1

[3] = test system: Puccinia triticina (PUCCRT); assay: Foliar protectant test against Puccinia triticina (PUCCRT) on wheat; assay type: in vivo; details: 100 ppm foliar spray on wheat; inoculated one day after application; banded assessment
Experimental: as §1

Compound	melting point	PRCO (percentage Disease Reduction from Control) ERYSGT 6 hour Protectant [1]	PRCO (percentage Disease Reduction from Control) LEPTNO 1 day Protectant [2]	PRCO (percentage Disease Reduction from Control) PUCCRT 1 day Protectant [3]
CO[C@@H]1CO[C@H]2C(O)[C@H](c3c[nH]c(=O)[nH]c3=O)O[C@@H]2[C@@H]1NC(N)=O (stereo partly shown) [Compound No. 1, malayamycin A]	158 °C (dec.)			
CO[C@H]1CO[C@H]2C(O)[C@H](c3c[nH]c(=O)[nH]c3=O)O[C@@H]2[C@@H]1NC(N)=O (stereo partly drawn) [compound 2, 6-epi-malayamycin A]		50	45	100
NC(=O)N[C@H]1[C@H]2O[C@@H](c3c[nH]c(=O)[nH]c3=O)C(O)[C@@H]2OC[C@H]1O (stereo partly shown) [compound 3, desmethylmalayamycin A]		0	100	100
